Columns and labels:
Experiment in all cases: cells
[1] = system: D283 Med; format: functional, cell-based, Homo sapiens; conditions: Homo sapiens, D283 Med
Description: SANGER: Inhibition of human D-283MED cell growth in a cell viability assay.

[2] = system: DBTRG-05MG; format: functional, cell-based, Homo sapiens; conditions: Homo sapiens, DBTRG-05MG;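 further: cell viability assay measuring growth inhibition of human DBTRG-05MG cells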
Description: SANGER: Inhibition of human DBTRG-05MG cell growth in a cell viability assay.

[3] = system: ES5; format: functional, cell-based, Homo sapiens; conditions: Homo sapiens, ES5;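 further: growth inhibition of human ES5 cells, read out by a cell viability assay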
[4] = system: EW-11; format: functional, cell-based, Homo sapiens; conditions: Homo sapiens, EW-11;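 further: growth inhibition of human EW-11 cells, measured with a cell viability assay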
Description: SANGER: Inhibition of human EW-11 cell growth in a cell viability assay.

[5] = system: EW-13; format: functional, cell-based; conditions: Homo sapiens;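 further: growth inhibition of EW-13 cells, read out with a cell viability assay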
Description: SANGER: Inhibition of human EW-13 cell growth in a cell viability assay.

[6] = system: GI-1; format: functional, cell-based, Homo sapiens; conditions: Homo sapiens, GI-1;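 further: growth inhibition of human GI-1 cells, measured with a cell viability readout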
Description: SANGER: Inhibition of human GI-1 cell growth in a cell viability assay.

[7] = system: GR-ST; format: functional, cell-based; conditions: Homo sapiens
Description: SANGER: Inhibition of human GR-ST cell growth in a cell viability assay.

[8] = system: HL-60; format: functional, cell-based; conditions: Homo sapiens;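 further: growth inhibition of human HL-60 cells, read out with a cell viability assay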
Description: SANGER: Inhibition of human HL-60 cell growth in a cell viability assay.

[9] = system: HO-1-N-1; format: functional, cell-based, Homo sapiens; conditions: Homo sapiens, HO-1-N-1;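 further: growth inhibition of human HO-1-N-1 cells, read out with a cell viability assay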
Description: SANGER: Inhibition of human HO-1-N-1 cell growth in a cell viability assay.

[10] = system: HOP-92; format: functional, cell-based, Homo sapiens; conditions: Homo sapiens, HOP-92;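 further: cell viability readout, with IC50 reflecting inhibition of HOP-92 cell growth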
Description: SANGER: Inhibition of human HOP-92 cell growth in a cell viability assay.

[11] = system: HPAF-II; format: functional, cell-based, Homo sapiens; conditions: Homo sapiens, HPAF-II;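 further: growth inhibition of HPAF-II cells, read out with a cell viability assay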
Description: SANGER: Inhibition of human HPAF-II cell growth in a cell viability assay.

[12] = system: HSC-3; format: functional, cell-based, Homo sapiens; conditions: Homo sapiens, HSC-3
Description: SANGER: Inhibition of human HSC-3 cell growth in a cell viability assay.

[13] = system: IST-MEL1; format: functional, cell-based, Homo sapiens; conditions: Homo sapiens, IST-MEL1;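 further: growth inhibition of the cell line, read out with a cell viability assay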
Description: SANGER: Inhibition of human IST-MEL1 cell growth in a cell viability assay.

[14] = system: KG-1; format: functional, cell-based; conditions: Homo sapiens;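 further: growth inhibition of KG-1 cells, read out by a cell viability assay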
[15] = system: KU812 cell line; format: functional, cell-based; conditions: Homo sapiens;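 further: growth inhibition of KU812 cells, read out with a cell viability assay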
Description: SANGER: Inhibition of human KU812 cell growth in a cell viability assay.

[16] = system: KYSE-150 cell line; format: functional, cell-based, Homo sapiens; conditions: Homo sapiens, KYSE-150;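 further: growth inhibition of human KYSE-150 cells, read out with a cell viability assay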
Description: SANGER: Inhibition of human KYSE-150 cell growth in a cell viability assay.

[17] = system: KYSE-410; format: functional, cell-based, Homo sapiens; conditions: Homo sapiens, KYSE-410;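 further: growth inhibition of KYSE-410 cells, measured through a cell viability readout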
Description: SANGER: Inhibition of human KYSE-410 cell growth in a cell viability assay.

[18] = system: LB2518-MEL; format: functional, cell-based, Homo sapiens; conditions: Homo sapiens, LB2518-MEL;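 further: growth inhibition of human LB2518-MEL cells, measured with a cell viability assay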
Description: SANGER: Inhibition of human LB2518-MEL cell growth in a cell viability assay.

[19] = system: LB996-RCC; format: functional, cell-based; conditions: Homo sapiens
Description: SANGER: Inhibition of human LB996-RCC cell growth in a cell viability assay.

[20] = system: MDA-MB-231; format: functional, cell-based, Homo sapiens; conditions: Homo sapiens, MDA-MB-231
Description: SANGER: Inhibition of human MDA-MB-231 cell growth in a cell viability assay.

[21] = system: MFH-ino; format: functional, cell-based; conditions: Homo sapiens;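 further: growth inhibition of human MFH-ino cells, read out by a cell viability assay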
Description: SANGER: Inhibition of human MFH-ino cell growth in a cell viability assay.

[22] = system: MHH-NB-11; format: functional, cell-based, Homo sapiens; conditions: Homo sapiens, MHH-NB-11;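 further: growth inhibition of human MHH-NB-11 cells, read out by a cell viability assay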
Description: SANGER: Inhibition of human MHH-NB-11 cell growth in a cell viability assay.

[23] = system: ML-2; format: functional, cell-based; conditions: Homo sapiens;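 further: growth inhibition of ML-2 cells, measured with a cell viability readout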
Description: SANGER: Inhibition of human ML-2 cell growth in a cell viability assay.

[24] = system: MOLT-16; format: functional, cell-based; conditions: Homo sapiens;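 further: growth inhibition of human MOLT-16 cells, read out with a cell viability assay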
Description: SANGER: Inhibition of human MOLT-16 cell growth in a cell viability assay.

[25] = system: MOLT-4; format: functional, cell-based; conditions: Homo sapiens;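 further: growth inhibition of MOLT-4 cells, determined with a cell viability readout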
Description: SANGER: Inhibition of human MOLT-4 cell growth in a cell viability assay.

[26] = system: NCI-H1304; format: functional, cell-based; conditions: Homo sapiens;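 further: growth inhibition of the cancer cell line, measured in a cell viability assay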
Description: SANGER: Inhibition of human NCI-H1304 cell growth in a cell viability assay.

[27] = system: NCI-H2452; format: functional, cell-based, Homo sapiens; conditions: Homo sapiens, NCI-H2452;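 further: growth inhibition of NCI-H2452 cells, read out with a cell viability assay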
Description: SANGER: Inhibition of human NCI-H2452 cell growth in a cell viability assay.

[28] = system: NCI-H69; format: functional, cell-based; conditions: Homo sapiens;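 further: growth inhibition of the cell line, read out with a cell viability assay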
Description: SANGER: Inhibition of human NCI-H69 cell growth in a cell viability assay.

[29] = system: OVCAR-4; format: functional, cell-based, Homo sapiens; conditions: Homo sapiens, OVCAR-4;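 further: growth inhibition of human OVCAR-4 cells, measured with a cell viability assay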
Description: SANGER: Inhibition of human OVCAR-4 cell growth in a cell viability assay.

[30] = system: QIMR-WIL; format: functional, cell-based; conditions: Homo sapiens;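 further: growth inhibition of QIMR-WIL cells, read out with a cell viability assay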
Description: SANGER: Inhibition of human QIMR-WIL cell growth in a cell viability assay.

[31] = system: RH-1; format: functional, cell-based, Homo sapiens; conditions: Homo sapiens, RH-1;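 further: growth inhibition of human RH-1 cells, read out with a cell viability assay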
[32] = system: RPMI-7951; format: functional, cell-based, Homo sapiens; conditions: Homo sapiens, RPMI-7951
Description: SANGER: Inhibition of human RPMI-7951 cell growth in a cell viability assay.

[33] = system: RS4-11; format: functional, cell-based; conditions: Homo sapiens;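 further: growth inhibition of RS4-11 cells, read out by a cell viability assay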
Description: SANGER: Inhibition of human RS4-11 cell growth in a cell viability assay.

[34] = system: SK-HEP1; format: functional, cell-based, Homo sapiens, SK-HEP-1; conditions: Homo sapiens, SK-HEP1;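 further: cell viability readout used to quantify reduction in proliferation of human SK-HEP-1 cells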
Description: SANGER: Inhibition of human SK-HEP-1 cell growth in a cell viability assay.

[35] = system: SK-MEL-24; format: functional, cell-based; conditions: Homo sapiens;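 further: growth inhibition read out by a cell viability assay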
Description: SANGER: Inhibition of human SK-MEL-24 cell growth in a cell viability assay.

[36] = system: SK-N-FI; format: functional, cell-based, Homo sapiens; conditions: Homo sapiens, SK-N-FI;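 further: cell viability assay measuring growth inhibition of human SK-N-FI cells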
Description: SANGER: Inhibition of human SK-N-FI cell growth in a cell viability assay.

[37] = system: SK-OV-3; format: functional, cell-based, Homo sapiens; conditions: Homo sapiens, SK-OV-3;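 further: growth inhibition of SK-OV-3 human cells, read out with a cell viability assay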
Description: SANGER: Inhibition of human SK-OV-3 cell growth in a cell viability assay.

[38] = system: SW1417; format: functional, cell-based, Homo sapiens; conditions: Homo sapiens, SW1417;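 further: growth inhibition of human SW1417 cells, read out with a cell viability assay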
Description: SANGER: Inhibition of human SW1417 cell growth in a cell viability assay.

[39] = system: SW780; format: functional, cell-based, Homo sapiens; conditions: Homo sapiens, SW780;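 further: growth inhibition of the cells, read out with a cell viability assay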
Description: SANGER: Inhibition of human SW780 cell growth in a cell viability assay.

[40] = system: SW 954; format: functional, cell-based, Homo sapiens; conditions: Homo sapiens, SW 954;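 further: growth inhibition of SW954 human cancer cells, read out as cell viability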
Description: SANGER: Inhibition of human SW954 cell growth in a cell viability assay.

[41] = system: SW 962; format: functional, cell-based, Homo sapiens; conditions: Homo sapiens, SW 962;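 further: growth inhibition of human SW962 cells, read out by a cell viability assay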
Description: SANGER: Inhibition of human SW962 cell growth in a cell viability assay.

[42] = system: T47D; format: functional, cell-based, Homo sapiens; conditions: Homo sapiens, T47D;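 further: growth inhibition of human T47D cells, measured with a cell viability assay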
Description: SANGER: Inhibition of human T47D cell growth in a cell viability assay.

[43] = system: T84; format: functional, cell-based, Homo sapiens; conditions: Homo sapiens, T84;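 further: growth inhibition measured with a cell viability readout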
Description: SANGER: Inhibition of human T84 cell growth in a cell viability assay.

[44] = system: 5637; format: functional, cell-based, Homo sapiens; conditions: Homo sapiens
Description: SANGER: Inhibition of human 5637 cell growth in a cell viability assay.

[45] = system: BB49-HNC; format: functional, cell-based, Homo sapiens; conditions: Homo sapiens, BB49-HNC;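 further: cell viability assay read-out, reported as inhibition of BB49-HNC cell growth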
Description: SANGER: Inhibition of human BB49-HNC cell growth in a cell viability assay.

[46] = system: BFTC-909; format: functional, cell-based, Homo sapiens; conditions: Homo sapiens, BFTC-909
Description: SANGER: Inhibition of human BFTC-909 cell growth in a cell viability assay.

[47] = system: BT-20; format: functional, cell-based, Homo sapiens; conditions: Homo sapiens, BT-20;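 further: cell viability assay measuring suppression of growth in human BT-20 cells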
Description: SANGER: Inhibition of human BT-20 cell growth in a cell viability assay.

[48] = system: TE-5; format: functional, cell-based, Homo sapiens; conditions: Homo sapiens, TE-5;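 further: inhibition of cell growth, read out by a cell viability assay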
Description: SANGER: Inhibition of human TE-5 cell growth in a cell viability assay.

[49] = system: VA-ES-BJ; format: functional, cell-based, Homo sapiens; conditions: Homo sapiens, VA-ES-BJ;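 further: growth inhibition of the VA-ES-BJ cell line, read out by a cell viability assay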
Description: SANGER: Inhibition of human VA-ES-BJ cell growth in a cell viability assay.

[50] = system: YKG-1; format: functional, cell-based, Homo sapiens; conditions: Homo sapiens, YKG-1;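 further: cell growth inhibition, read out with a viability assay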
Description: SANGER: Inhibition of human YKG-1 cell growth in a cell viability assay.

[51] = system: CHL-1; format: functional, cell-based, Homo sapiens; conditions: Homo sapiens, CHL-1;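 further: cell growth inhibition, read out with a cell viability assay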
Description: SANGER: Inhibition of human CHL-1 cell growth in a cell viability assay.

Measured: IC50

C[C@]1(O)C[C@@H](c2nc(-c3ccc4ccc(-c5ccccc5)nc4c3)c3c(N)nccn32)C1 [LINSITINIB]
338 nM: [33]
1210 nM: [43]
159 nM: [23]
749 nM: [31]
284 nM: [4]
1670 nM: [8]
> 2560 nM: all other assays above

C=CCc1cccc(/C=N/NC(=O)CN2CCN(Cc3ccccc3)CC2)c1O [PAC-1]
1180 nM: [17]
1030 nM: [43]
1660 nM: [37]
> 2560 nM: all other assays above

Cc1ccc(Nc2nccc(N(C)c3ccc4c(C)n(C)nc4c3)n2)cc1S(N)(=O)=O [PAZOPANIB]
5380 nM: [15]
718 nM: [14]
2230 nM: [6]
> 8000 nM: all other assays above

CN(c1ncccc1CNc1nc(Nc2ccc3c(c2)CC(=O)N3)ncc1C(F)(F)F)S(C)(=O)=O [PF-00562271]
2130 nM: [22]
1670 nM: [23]
1630 nM: [5]
2500 nM: [20]
1900 nM: [49]
2310 nM: [10]
1350 nM: [16]
2000 nM: [40]
> 2560 nM: all other assays above

Cn1cncc1[C@@](N)(c1ccc(Cl)cc1)c1ccc2c(c1)c(-c1cccc(Cl)c1)cc(=O)n2C [TIPIFARNIB]
1940 nM: [33]
8370 nM: [46]
2900 nM: [40]
805 nM: [51]
4420 nM: [6]
1710 nM: [35]
2630 nM: [12]
1030 nM: [44]
258 nM: [24]
2150 nM: [41]
6200 nM: [16]
< 62.5 nM: [23]
2490 nM: [37]
7690 nM: [19]
2870 nM: [7]
7570 nM: [11]
5860 nM: [45]
14400 nM: [2]
2210 nM: [29]
4910 nM: [25]
13500 nM: [32]
714 nM: [34]
5830 nM: [20]
16.3 nM: [30]
2750 nM: [31]
3060 nM: [14]
11900 nM: [48]
526 nM: [50]
815 nM: [21]
97.1 nM: [15]
2360 nM: [49]
2820 nM: [13]
2100 nM: [18]
3500 nM: [17]
6480 nM: [5]
546 nM: [43]
10500 nM: [9]
6930 nM: [8]
9130 nM: [10]
> 16000 nM: all other assays above

From ChEMBL document CHEMBL1201861, “Genomics of Drug Sensitity in Cancer screening data, Wellcome Trust Sanger Institute”
